Key:
PC9/G cells [1] = test: MTT cell growth inhibition assay in PC9/G cells; details: 72 h; for effect on cell viability when combined with Gef + Res treatment: 3-MA 5 mM or DEVD 10 nM with Gef 1 μM + Res 40 μM
Procedure: Cell viability was measured by MTT assay. Data are shown as means ± SD of three independent experiments. […] Then, cell viability, apoptosis, autophagy and senescence were detected as described in the Materials and methods. […] Res: Resveratrol; 3-MA: 3-methyladenine; DEVD: Ac-DEVD-CHO. The antiproliferative effects of the treatments were evaluated using the MTT assay. Cells were seeded at a density of 4 × 10^3 cells/well in 96-well plates. […] Then, MTT assays were performed as described previously. […] The different drug doses were combined using constant ratios of the IC50 values calculated from the previous cytotoxicity tests. […] The effects of different drug combinations were evaluated using the CompuSyn software (Biosoft, Ferguson, MO, USA) based on the median effect model of Chou and Talay[43].

PC9/G cells [2] = test: SA-β-gal senescence assay; format: cell-based, human; details: Gef 1 μM alone or combined with Res 40 μM, 72 h
Procedure: (§1) Figure 4 Res enhanced Gef-induced apoptosis, autophagy, G2/M phase cell cycle arrest, and senescence in PC9/G cells. […] (A) Morphological changes in PC9/G cells including nuclei condensation and fragmentation (arrow) were observed by DAPI staining under a fluorescence microscope. (B) Annexin V-FITC/PI staining assay of PC9/G cells was analysed by flow cytometry. (C) Autophagy was detected by MDC staining, and (D) fluorescence intensity was detected by flow cytometry. (E) Cells were stained with PI, and then the DNA content was analysed by flow cytometry. Sub-G1, G1, S and G2/M indicate different cell cycle phases. (F) Cells were stained for SA-β-Gal activity. The percentage of senescent cells in PC9/G cells was measured. Magnification: 200× .
Cell senescence was measured following the manufacturer’s protocol of the SA-β-gal assay kit. According to the protocol, cells were fixed with 2% paraformaldehyde for 15 min at room temperature and then incubated with fresh SA-β-gal stain solution in the dark at 37 °C overnight. SA-β-gal-positive cells were quantified by counting stained and unstained cells, and the result is presented as the ratio of SA-β-gal-positive cells over the total cells counted.

PC9/G cells [3] = test: Annexin V-FITC/PI apoptosis assay by flow cytometry; format: cell-based, human; details: Gef 1 μM alone or combined with Res 40 μM, 72 h
Procedure: as §1
For apoptosis analysis, cells were washed twice with 1× binding buffer then labelled with Annexin V and propidium iodide (PI) following the manufacturer’s instructions. The Apoptosis Analysis Kit was ordered from Tianjin Sungene Biotech (Tianjing, China). For cell cycle analysis, cells were washed twice with ice-cold PBS and fixed with 70% ethanol at −20 °C overnight. […] The analysis of the samples was performed by flow cytometry (Becton-Dickinson, San Jose, CA, USA), and the acquired data were analysed with the CellQuest software (BD Biosciences).

H1299 cells = test: MTT cell growth inhibition assay in H1299 cells; format: cell-based; details: Homo sapiens, NCI-H1299
Procedure: (§2) The antiproliferative effects of the treatments were evaluated using the MTT assay. Cells were seeded at a density of 4 × 10^3 cells/well in 96-well plates. […] Then, MTT assays were performed as described previously.
(§3) are shown as means ± SD of three independent experiments.

HCC827 cells = test: MTT cell growth inhibition assay in HCC827 cells; format: cell-based; details: Homo sapiens
Procedure: as §2, §3

A549 cells = test: MTT cell growth inhibition assay in A549 cells; format: cell-based; details: Homo sapiens
Procedure: as §2, §3

PC9 cells = test: MTT cell growth inhibition assay in PC9 cells; format: cell-based; details: Homo sapiens, PC-9, single drug, 72 h
Procedure: Then, MTT assays were performed as described previously.

H1975 cells = test: MTT cell growth inhibition assay in H1975 cells; format: cell-based; details: Homo sapiens, NCI-H1975
Procedure: as §2, §3

HCC827/G cells = test: MTT cell growth inhibition assay in HCC827/G cells; format: cell-based; details: Homo sapiens
Procedure: as §2, §3

Cn1cnc(N)c2ncnc1-2 [3-MA, 3-methyladenine] was tested, and the “effect on cell viability when combined with Gef + Res treatment” value (PC9/G cells [1]; PC9/G cells) was “significantly potentiated the reduction of cell viability”.

For COc1cc2ncnc(Nc3ccc(F)c(Cl)c3)c2cc1OCCCN1CCOCC1 [Gef, Gefitinib], the “proportion of SA-β-gal-positive cells” value (PC9/G cells [2]) was 11.4 ± 1.6% and the apoptosis rate (PC9/G cells [3]) was 9.77 ± 2.96.

Ac-DEVD-CHO was tested, and the “toxic effect on cell viability, alone” value (PC9/G cells [1]; PC9/G cells, 3-MA 5 mM or DEVD 10 nM alone) was “no toxic effects” and the “effect on cell viability when combined with Gef + Res treatment” value (PC9/G cells [1]; PC9/G cells) was “no effect”.

Oc1ccc(/C=C/c2cc(O)cc(O)c2)cc1 [Res, Resveratrol] was tested, and the IC50 (H1299 cells) was 88.8 ± 1.62 µM, the IC50 (HCC827 cells) was 73.4 ± 4.32 µM and the IC50 (PC9/G cells [1]; Homo sapiens) was 33.9 ± 1.6 µM. The IC50 (A549 cells) was 72.4 ± 2.76 µM, the IC50 (PC9 cells) was 82.5 ± 10 µM and the IC50 (H1975 cells) was 74.6 ± 2.03 µM. It also gave an IC50 (HCC827/G cells) of 42.9 ± 3.54 µM.

Source: publication PMC4669414 (Scientific Reports, 2015)
